Results as given in publication PMC5941281, “Protecting group free radical C–H trifluoromethylation of peptides” (Chemical Science, 2018).

Key:
[1] = biological target: human insulin receptor(B); assay: Insulin Receptor Phosphorylation Assay (MSD pIR assay); format: cell-based; conditions: CHO cells stably expressing human insulin receptor(B), serum starved, 40,000 cells/well, 8 min at 37 °C, read-out: EC50 (functional assay)
[2] = biological target: human insulin receptor(B); assay: Insulin Receptor Binding Assay (scintillation proximity assay); conditions: SPA, 384-well, membranes from CHO cells overexpressing human insulin receptor(B); [125I]-insulin 0.015 nM; room temperature, 1 to 12 hours
Experimental: Both the binding affinity and functional activity of 18 supported the conclusion that the A19-CF3-tyrosine–insulin maintained its structural integrity as compared with unmodified, native insulin. To further support this observation, SOFAST ^13C methyl HMQC NMR spectroscopic analysis was conducted on both 18 and native unmodified insulin.[18] […] This observation validated the notion that CF3-labeling of aromatic sidechains provides a sensitive ^19F-NMR spectroscopic probe of the local environment in complex peptides while being minimally perturbing to the overall structure of the biomacromolecule.
Insulin Receptor Binding Assays were run in a scintillation proximity assay (SPA) 384- we ll
format using cell membranes prepared from CHO cells overexpressing human insulin
receptor(B) grown in F12 media containing 10% FBS and antibiotics (G418,
Penicillin/[…]). Cell membranes were prepared in 50 mM Tris buffer, pH 7.8, containing
5 m M Mg Cl 2. The assay buffer contained 50 mM Tris buffer, pH 7.5, 150 mM NaCl, 1 mM
CaCl2, 5 mM MgCl 2, 0.1% BSA and protease inhibitors (Complete- Mi n i -Roche). Cell
membranes were added to W GA PVT PEI SPA beads (5 mg/mL f inal concentration) f ollowed by
addition of test molecules at appropriate concentrations. After 5-15 min incubation at room
temperature, [125I]- insulin was added at 0.015 nM f inal concentration f or a f inal total volume of
50 µL. […]

EC50 [1]: 400 pM
IC50 [2]: 800 pM
Substance: native insulin: recombinant human insulin, 21 amino acid A chain and 30 amino acid B chain linked by three disulfide bonds
